A short description of data set [1]: percutaneous [^3H]-4-hydroxy tamoxifen delivery in breast cancer patients (Example 1).
Description: The patients received [^3H]-labeled drug applied directly on the affected breasts at specified intervals ranging from 12 hours to 7 days before surgery to excise diseased tissue. Breast tissue from three regions: the tumor, tissue immediately surrounding the tumor, and normal tissue, was excised and immediately frozen in liquid nitrogen. Additionally, plasma and urine samples were obtained at scheduled intervals and frozen until analysis.
For another data set, the target named is T1, estrone sulphatase (Homo sapiens, UniProt P08842).
T1 construct: estrone sulphatase activity in mammary cancer cell lines; endogenous in cells
T1 sequence (P08842 22-583): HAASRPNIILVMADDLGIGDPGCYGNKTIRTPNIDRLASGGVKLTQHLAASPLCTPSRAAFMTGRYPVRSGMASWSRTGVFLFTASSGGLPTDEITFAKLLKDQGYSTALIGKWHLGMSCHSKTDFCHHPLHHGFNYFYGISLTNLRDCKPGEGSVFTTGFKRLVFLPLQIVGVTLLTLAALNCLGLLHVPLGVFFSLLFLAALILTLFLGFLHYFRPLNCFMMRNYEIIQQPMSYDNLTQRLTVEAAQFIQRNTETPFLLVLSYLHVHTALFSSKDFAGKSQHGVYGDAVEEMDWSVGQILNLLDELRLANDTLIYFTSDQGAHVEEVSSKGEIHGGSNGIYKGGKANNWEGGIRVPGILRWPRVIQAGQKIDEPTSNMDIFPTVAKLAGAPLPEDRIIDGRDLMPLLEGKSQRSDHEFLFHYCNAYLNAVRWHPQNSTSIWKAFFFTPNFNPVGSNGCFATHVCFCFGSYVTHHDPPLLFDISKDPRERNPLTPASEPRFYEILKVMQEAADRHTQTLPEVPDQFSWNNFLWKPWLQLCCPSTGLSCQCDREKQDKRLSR
As to conditions: mammary cancer cell lines; cited from earlier work.

Data set [2] concerns p53(−) normal human mammary epithelial cells. As to conditions: cited from earlier work.
The subject of a further data set is rat liver. The settings on record: cited from earlier work.
Another data set deals with benign breast disease. The settings on record: cited from earlier work.
The conditions of data set [3]: Group 2 (0.5 mg/day gel): seventh day of treatment; Group 1 (oral tamoxifen): fifth day; cited from earlier work.
For data set [4] the following is noted: Group 1: PO tamoxifen 20 mg/day (10 mg b.i.d.), 3-4 weeks; cited from earlier work.

Molecules are shown by their SMILES.

Turning to `CC/C(=C(\c1ccccc1)c1ccc(OCCN(C)C)cc1)c1ccccc1` [[^3H]-tamoxifen], the “time of plateau of radioactivity in blood” value in data set [1] (percutaneous application) stood at 2 days.
As for `CC/C(=C(\c1ccccc1)c1ccc(OCCN(C)C)cc1)c1ccccc1` [tamoxifen], the “inhibitory effect on estrone sulphatase activity” value at estrone sulphatase is “little or no effect”. The initiation of apoptosis entry in data set [2] is on record as “initiates apoptosis”. Moreover, the rat liver carcinogenicity result in the data set with rat liver is recorded as “potent rat liver carcinogen”. The “retention in the breast” value in data set [1] (percutaneous application to the breast) was “shorter and far weaker”. In addition, in the data set on benign breast disease (in vivo), the “decrease of risk, adenosis” value is 41%; the “decrease of risk, cyst” value is on record as 34%; the “decrease of risk, duct ectasia” value is listed as 28%; the “decrease of risk, fibrocystic disease” value is reported as 33%. Besides, in the data set with benign breast disease (in vivo), the “decrease of risk, hyperplasia” value is 40%; the “decrease of risk, metaplasia” value was 49%; the “reduction of the risk of developing benign breast disease, overall” value was 28%. Besides, the “reduction of the need for breast biopsies” value with benign breast disease (women under 50) is on record as 41%. In addition, the “side effects reported by one person of the group” value in data set [3] is “hot flashes and mild vaginitis”. In data set [4], the “Normal Tissue concentration of 4-hydroxy tamoxifen, Mean ± SD” value is 10215 ± 2151 pg/g; the “Plasma concentration of 4-hydroxy tamoxifen, Day Pre-Surgery, Mean ± SD” value was 2.326 ± 0.585 ng/mL; the “Plasma concentration of 4-hydroxy tamoxifen, Day of Surgery, Mean ± SD” value is 2.317 ± 1.098 ng/mL; the “Tumor concentration of 4-hydroxy tamoxifen, Mean ± SD” value is on record as 12453 ± 3751 pg/g.

These data come from patent publication US8048927B2 (Besins Healthcare Luxembourg, priority 2004, dated 2011).
